The assay concerns J774 cells infected with S. flexneri M90T. Description: LDH release cytotoxicity assay, J774 cells infected with S. flexneri M90T. In kind it is cell-based, murine. The protocol:
In the studies the results of which are shown in FIG. 5, 2×10^4 J774 or peritoneal macrophage cells were seeded onto 96-well plates 18 hours before infection with M90T at a multiplicity of infection of 25 bacteria per cell (Clerc, P. L. et al., supra). Two hours after infection, supernatants of the infected macrophages were assayed for LDH using the Cytotox96® kit (Promega) according to the manufacture's instructions. The percent cytotoxicity was calculated as: [formula] where spontaneous release is the amount of LDH activity in supernatants of cells not infected and total release is the LDH activity in macrophage lysates. ICE inhibitor was added 1 h before infection at a concentration of 25 μg/ml.

The source of these data is patent US5972899A, “Apoptosis induced by Shigella IpaB” (New York University, priority 1996, dated 1999).

Molecules are shown by their SMILES.

Turning to `CC(=O)N[C@@H](Cc1ccc(O)cc1)C(=O)N[C@H](C(=O)N[C@@H](C)C(=O)N[C@H](C=O)CC(=O)O)C(C)C` [Ac-YVAD-CHO], the inhibition at 25 µg/mL (Mus musculus, ICE inhibitor 25 μg/ml added 1 h before infection, M90T at 25 bacteria per cell, LDH release 2 h after infection, read-out: inhibition of S. flexneri-induced cell death) was found to be 81.5%. Also, for the setting “inhibitor washed away (FIG. 5)”, the “reversibility of the inhibition of cell death” value is listed as “reversed by washing away the inhibitor”.

The inhibition is the relative decrease from the control value, in per cent.
